The source of these data is PMC5218480 (PLoS ONE, 2017).

This assay concerns MV-4-11 cells. In words: Gene expression microarray analysis (Affymetrix PrimeView) and GSEA. The note with it: ProbeSet 11733176_x_at; LIST B. The format is cell-based, human.

For the compound `Nc1ncn([C@@H]2O[C@H](CO)[C@@H](O)[C@H]2O)c(=O)n1` [azacitidine], the “RFU, ZNF507” value was 25.77 RFU.
